From ChEMBL document CHEMBL1153782, “3D QSAR study of the toxicity of trichothecene mycotoxins” (Eur J Med Chem, 2009)

How the values were obtained:
Saccharomyces cerevisiae [1] = assay: Cytotoxicity against yeast cells relative to Tetraol; format: functional, organism-based
Saccharomyces cerevisiae [2] = assay: Cytotoxicity against yeast cells assessed as logarithm of ratio of toxicity of test compound to Tetraol; format: functional, organism-based

SMILES | Ratio (Saccharomyces cerevisiae [1]) | Activity (Saccharomyces cerevisiae [2])
CC(=O)OC[C@]12CCC(C)=C[C@H]1O[C@@H]1[C@H](O)[C@@H](OC(C)=O)[C@@]2(C)[C@]12CO2 | 343 | 343
CC(=O)OC[C@]12CCC(C)=C[C@H]1O[C@@H]1[C@H](OC(C)=O)[C@@H](OC(C)=O)[C@@]2(C)[C@]12CO2 | 2.2 | 2.2
